Values of other authors in patent US20050107420A1 (Boehringe Ingelheim Pharma GmbH & Co. KG, priority 2002, published 2005).

Tests used:
[1] = system: catalytic site (Sc) of PDE4
[2] = rat
[3] = in vivo
[4] = system: cAMP
[5] = system: tumor cells; conditions: micromolar concentrations
[6] = system: PDE4 derived from tumor cells; conditions: read-out: IC50 against a PDE4 derived from tumor cells
[7] = target: PDE4D isoform (Homo sapiens, UniProt Q08499)
[8] = antigen-challenged pig
[9] = system: TNF release and lymphocyte proliferation; conditions: oral dose of 300 mg
[10] = system: PDE4B mutant enzyme; conditions: alanine for aspartate substitution
[11] = guinea-pig
[12] = in vivo; remark: listed apart in the source
[13] = oral administration, clinical conditions
[14] = not given; remark: listed apart in the source
[15] = system: gastric parietal cells
[16] = human, in vivo

Chain of PDE4D isoform (Q08499 whole entry, canonical isoform): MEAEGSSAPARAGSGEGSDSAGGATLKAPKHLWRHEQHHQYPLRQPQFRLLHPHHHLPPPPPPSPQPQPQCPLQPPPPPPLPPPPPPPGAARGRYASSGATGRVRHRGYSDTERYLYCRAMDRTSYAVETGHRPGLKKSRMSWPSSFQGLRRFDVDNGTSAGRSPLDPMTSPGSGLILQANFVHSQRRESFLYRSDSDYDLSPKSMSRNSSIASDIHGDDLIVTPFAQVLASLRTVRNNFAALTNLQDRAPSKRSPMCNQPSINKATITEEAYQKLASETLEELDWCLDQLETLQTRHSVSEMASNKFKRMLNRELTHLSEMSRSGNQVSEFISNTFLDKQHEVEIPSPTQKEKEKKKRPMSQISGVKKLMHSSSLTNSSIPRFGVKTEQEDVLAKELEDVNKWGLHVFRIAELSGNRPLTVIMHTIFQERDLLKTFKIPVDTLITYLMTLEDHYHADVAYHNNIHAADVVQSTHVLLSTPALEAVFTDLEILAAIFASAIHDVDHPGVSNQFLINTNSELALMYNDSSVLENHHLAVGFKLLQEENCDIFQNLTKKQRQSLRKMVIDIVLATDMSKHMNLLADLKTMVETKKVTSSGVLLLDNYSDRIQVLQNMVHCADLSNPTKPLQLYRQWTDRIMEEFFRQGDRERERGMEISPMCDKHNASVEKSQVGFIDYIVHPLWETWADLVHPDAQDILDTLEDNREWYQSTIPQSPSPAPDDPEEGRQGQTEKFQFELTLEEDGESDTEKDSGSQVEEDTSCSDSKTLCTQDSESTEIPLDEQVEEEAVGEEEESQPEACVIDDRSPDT

COc1ccc([C@H](Cc2ccncc2)c2ccccc2)cc1OC1CCCC1 [CDP840]
potency at the Sc [1]: significantly higher potency at the Sc than does SB-207,499 | late reactions to inhaled allergen (9.5 days oral administration, 15 and 30 mg, patients with bronchial asthma): suppression of late reactions to inhaled allergen | late-phase response in the treatment of asthma (human, in vivo): significant inhibition

COc1cc2c3c(c1)C(c1ccccc1)=N[C@@H](NC(=O)c1cc4ccccc4cn1)C(=O)N3CC2 [CI-1018]
oral potency, ED50 [2]: 5 mg/kg

COc1ccc(C2CNC(=O)NC2)cc1OC1CC2CCC1C2 (centres unmarked) [CP-80,633]
emesis, nausea and vomiting [3]: elicit emesis

COc1ccc([C@@H](Cc2ccncc2)c2ccccc2)cc1OC1CCCC1 [CT-1731]
elevation of cAMP, activity relative to enantiomer CDP840 [4]: less active

Clc1nc2c(N3CCCC3)nc(C3CCNCC3)nc2nc1NCc1ccccc1 [Formula (0.1.55)]
inhibition of the growth of tumor cells [5]: inhibit the growth of tumor cells at micromolar concentrations | IC50 [6]: 16 nM

O=C(NCc1ccccc1Cl)c1cccnc1Oc1ccc(F)cc1 [Formula (0.1.58)]
selectivity for inhibition of the PDE4D isoform [7]: 100 fold

N#Cc1cccc(-c2nc(-c3ccc(C(=O)O)cc3)cc3cccnc23)c1 [Formula (0.1.59)]
potency or selectivity for PDE4D relative to other subtypes, in words [7]: PDE4D selective inhibitor

CCCn1c(=O)c2c(C)nc(CC)n2c2nc(OC)ccc21 [Formula D-22888]
anti-allergic effect [8]: strong anti-allergic affect | rhinorrhea [8]: inhibit rhinorrhea

CCNc1ncn(Cc2ccc(OC)c(OC3CCCC3)c2)c2nc(C(C)C)nc1-2 [Formula V-11294A]
TNF levels and lymphocyte proliferation ex vivo [9]: effective in reducing TNF levels and lymphocyte proliferation

COc1ccc(C(=O)Nc2c(Cl)cncc2Cl)cc1OC1CCCC1 [RP-73,401]
potency on the mutant PDE4B enzyme [10]: lose potency | inhibition of antigen-induced airway eosinophilia and PAF- and ozone-induced airway hyper-responsiveness (AHR) [11]: active | inhibition of antigen-induced bronchoalveolar lavage (BAL) eosinophilia [11]: active | inhibition of antigen-induced lung eosinophilia and eosinophil peroxidase (EPO) [11]: active

O=c1c2cccnc2n(-c2cccc([N+](=O)[O-])c2)c(=O)n1Cc1ccncc1 [RS-25,344]
potency or selectivity for PDE4D relative to other subtypes, in words [7]: more potent against PDE4D

COc1ccc(CC2CNC(=O)N2)cc1OC1CCCC1 (centres unmarked) [Ro-20-1724]
potency on the mutant PDE4B enzyme [10]: lose potency

COc1cc2c(cc1OC)[C@@H]1CN(C)CC[C@@H]1N=C2c1ccc(NC(C)=O)cc1 [benafentrine]
bronchodilation [12]: bronchodilation only when administered by inhalation

CSc1ccc(C(=O)c2[nH]c(=O)[nH]c2C)cc1 [enoximone]
mean pulmonary artery pressure [13]: decreases in mean pulmonary artery pressure

CC[N+]1(C)[C@@H]2CC(OC(=O)[C@H](CO)c3ccccc3)C[C@H]1[C@@H]1O[C@@H]12 (some centres unmarked) [oxitropium]
change in heart rate, blood pressure, bladder function, intraocular pressure, or pupillary diameter ([14]; inhaled at several times the recommended dose): little or no change

COc1ccc(C2CNC(=O)C2)cc1OC1CCCC1 (centres unmarked) [rolipram]
potency on the mutant PDE4B enzyme [10]: lose potency | stimulation of acid secretion from gastric parietal cells [15]: very potent stimulator

Cn1c(=O)c2[nH]cnc2n(C)c1=O [theophylline]
neutrophil counts in the sputum of COPD patients [16]: reduces neutrophil counts

CCOc1cc2cc(C(=O)O)sc2cc1OCC [tibenelast]
bronchodilation [12]: Unsatisfactory results

C[N+]1(C)C2CC(OC(=O)C(O)(c3cccs3)c3cccs3)CC1C1OC12 (stereo not drawn) [tiotropium, (1α, 2β, 4β, 5α, 7β)-7-[(hydroxydi-2-thienylacetyl)oxy]-9,9-dimethyl-3-oxa-9-azoniatricyclo[3.3.1.0^2,4]nonane bromide]
duration of action ([14]; in vivo): prolonged duration of action

CCCOc1ccccc1-c1nc2[nH]nnc2c(=O)[nH]1 [zaprinast]
bronchodilation [12]: Unsatisfactory results

COc1cc(-c2ccc(=O)[nH]n2)ccc1OC(F)F [zardaverine]
bronchodilation [12]: only a modest and short-lived bronchodilation
